31 molecules from EP2975030B1, “DIHYDROPYRIDAZINE-3,5-DIONE DERIVATIVE” (Chugai Seiyaku Kabushiki Kaisha, priority 2013, dated 2014) can be followed below.

The test system of the experiment is rat small-intestinal brush border membrane vesicles. Nature of the experiment: Inhibitory effect on 33PO4 uptake into rat small-intestinal brush border membrane vesicles (rapid filtration method). The note with it: 1 µM test compound; 33PO4 uptake into rat small-intestinal BBMVs, 60 seconds. Type of experiment: biochemical, Wistar female rat. How it is done: The ^33PO4 transport activity of the small-intestinal BBMVs was determined by the rapid filtration method. […] Then, ice-cold buffer C (110 mM NaCl, 1 mM KH2PO4, and 10 mM HEPES (pH 7.5)) was added to each reaction mixture, which was immediately suction-filtered through a Millipore filter. The filter was washed with buffer C, and each sample was then dissolved in a liquid scintillator. The amount of ^33PO4 uptake into BBMVs was measured using a liquid scintillation counter. […]

As for `COCCN(C)CCOCCOc1ccc(CN2C(=O)C(C(=O)Nc3ccc(C(F)(F)F)cc3-c3cc(C(F)(F)F)ncn3)=C(O)C3(CCCC3)N2C)c(F)c1F` [Example 429, 7-[[2,3-Difluoro-4-[2-[2-[2-methoxyethyl(methyl)amino]ethoxy]ethoxy]phenyl]methyl]-10-hydroxy-6-methyl-8-oxo-N-[4-(trifluoromethyl)-2-[6-(trifluoromethyl)pyrimidin-4-yl]phenyl]-6,7-diazaspiro[4.5]dec-9-ene-9-carboxamide], the “Rate of uptake inhibition (%) (1 µM)” value is recorded as 41%.
With `CN(CCOc1ccc(CN2C(=O)C(C(=O)Nc3ccc(C(F)(F)F)cc3-c3cc(C(F)(F)F)ncn3)=C(O)C3(CCCC3)N2C)c(F)c1F)C1CCOCC1` [Example 365], the “Rate of uptake inhibition (%) (1 µM)” value is on record as 34%.
For `COC(=O)c1cccc(-c2cc(C(F)(F)F)ccc2NC(=O)C2=C(O)[C@@]3(C)CCCN3N(Cc3cccc(F)c3F)C2=O)c1OC` [Example 65], the “Rate of uptake inhibition (%) (1 µM)” value was determined as 98%.
Regarding `CN1N(Cc2ccc(OCCCOC[C@H](O)CO)c(F)c2F)C(=O)C(C(=O)Nc2ccc(C(F)(F)F)cc2-c2ccc(C(F)(F)F)nc2)=C(O)C12CCC2` [Example 383, 6-[[4-[3-[(2R)-2,3-Dihydroxypropoxy]propoxy]-2,3-difluorophenyl]methyl]-9-hydroxy-5-methyl-7-oxo-N-[4-(trifluoromethyl)-2-[6-(trifluoromethyl)pyrydin-3-yl]phenyl]-5,6-diazaspiro[3.5]non-8-ene-8-carboxamide], the “Rate of uptake inhibition (%) (1 µM)” value was 126%.
As for `CN1N(Cc2ccc(OCCN3CC(F)(F)C3)c(F)c2F)C(=O)C(C(=O)Nc2ccc(C(F)(F)F)cc2-c2cc(C(F)(F)F)ncn2)=C(O)C12CCCC2` [Example 369], the “Rate of uptake inhibition (%) (1 µM)” value is listed as 43%.
`Cc1c(Cl)ncnc1-c1cc(Cl)ccc1NC(=O)C1=C(O)[C@H](C(C)(C)C)N(C)N(Cc2ccc(OCCN3CCOCC3)c(F)c2F)C1=O` [Example 275]: the “Rate of uptake inhibition (%) (1 µM)” value was 42%.
Consider `Cc1c(C#N)ncnc1-c1cc(C(F)(F)F)ccc1NC(=O)C1=C(O)C2(CCC2)N(C)N(Cc2ccc(OCCN3CCOCC3)c(F)c2F)C1=O` [Example 283], for which the “Rate of uptake inhibition (%) (1 µM)” value came out at 45%.
For “(4aR)-1-[(3-Fluorophenyl)methyl]4-hydroxy-N-[5-methyl-2-(trifluoromethyl)furan-3-yl]-2-oxo-4a-propyl-6,7-dihydro-5H-pyrrolo[1,2-b]pyridazine-3-carboxamide [Example 11]”, the “Rate of uptake inhibition (%) (1 µM)” value is listed as 22%.
With `Cc1cc(NC(=O)C2=C(O)[C@@H]3CCCCN3N(Cc3c(F)c(F)cc4cc[nH]c34)C2=O)c(C(F)(F)F)o1` [Example 17, (4aS)-1-[(5,6-Difluoro-1H-indol-7-yl)methyl]-4-hvdroxy-N-[5-methyl-2-(trifluoromethyl)furan-3-yl]-2-oxo-5,6,7,8-tetrahydro-4aH-pyrido[1,2-b]pyridazine-3-carboxamide], the “Rate of uptake inhibition (%) (1 µM)” value is 33%.
For the molecule `CN1N(Cc2ccc(OCCCOC[C@H](O)CO)c(F)c2F)C(=O)C(C(=O)Nc2ccc(C(F)(F)F)cc2-c2cc(C(F)(F)F)ncn2)=C(O)C12CCCC2` [Example 392], the “Rate of uptake inhibition (%) (1 µM)” value is reported as 47%.
Under `C[C@]12CCCN1N(Cc1cc(F)c(F)cc1F)C(=O)C(C(=O)Nc1cc(F)c(Br)c(F)c1)=C2O` [Example 194] stands 80%; under `C[C@]12CCCN1N(Cc1c(F)cccc1F)C(=O)C(C(=O)Nc1ccc(C(F)(F)F)cc1-c1ccc(C(F)(F)F)nc1)=C2O` [Example 203], 91%.
Regarding `CN1N(Cc2ccc(OCCN3[C@@H]4COC[C@H]3C4)c(F)c2F)C(=O)C(C(=O)Nc2ccc(C(F)(F)F)cc2-c2cc(C(F)(F)F)ncn2)=C(O)C12CCCC2` [Example 380], the “Rate of uptake inhibition (%) (1 µM)” value worked out at 43%.
As to `CN(CCO)CCOc1ccc(CN2C(=O)C(C(=O)Nc3ccc(C(F)(F)F)cc3-c3cc(C(F)(F)F)ncn3)=C(O)C3(CCCC3)N2C)c(F)c1F` [Example 373], the “Rate of uptake inhibition (%) (1 µM)” value was determined as 27%.
As to `CN1N(Cc2ccc(C#CCN3CCOCC3)c(F)c2F)C(=O)C(C(=O)Nc2ccc(C(F)(F)F)cc2-c2cc(C(F)(F)F)ncn2)=C(O)C1(C)C` [Example 315, 2-[[2,3-Difluoro-4-(3-morpholin-4-ylprop-1-ynil)phenyl]methyl]-5-hydroxy-1,6,6-trimethyl-3-oxo-N-[4-(trifluoromethyl)-2-[6-(trifluoromethyl)pyrimidin-4-yl]phenyl]pyridazine-4-carboxamide], the “Rate of uptake inhibition (%) (1 µM)” value worked out at 63%.
On to `CSc1ncc(-c2cc(C(F)(F)F)ccc2NC(=O)C2=C(O)[C@@]3(C)CCCN3N(Cc3ccc(C#CCCCCC(=O)O)c(F)c3F)C2=O)cn1` [Example 118, 7-[4-[[(4aR)-4-Hydroxy-4a-methyl-3-[[2-(2-methylsulfanylpyrimidin-5-yl)-4-(trifluoromethyl)phenyl]carbamoyl)-2-oxo-6,7-dihydro-5H-pyrrolo[1,2-b]pyridazin-1-yl]methyl]-2,3-difluorophenyl]hept-6-ynoate], for which the “Rate of uptake inhibition (%) (1 µM)” value was found to be 81%.
On to `C[C@]12CCCN1N(Cc1c(F)cc(C#CCCCCOC[C@H](O)CO)cc1F)C(=O)C(C(=O)Nc1ccc(C(F)(F)F)cc1-c1ccc(C(F)(F)F)nc1)=C2O.[Na+]` [Example 143], for which the “Rate of uptake inhibition (%) (1 µM)” value is 71%.
With `C[C@]12CCCN1N(Cc1ccccc1C#N)C(=O)C(C(=O)Nc1ccc(C(F)(F)F)cc1-c1cc(C(F)(F)F)ncn1)=C2O` [Example 178], the “Rate of uptake inhibition (%) (1 µM)” value stood at 81%.
`CN1N(Cc2ccc(OCCCCCOCCO)c(F)c2F)C(=O)C(C(=O)Nc2ccc(C(F)(F)F)cc2-c2cc(C(F)(F)F)ncn2)=C(O)C12CCCC2` [Example 397]: the “Rate of uptake inhibition (%) (1 µM)” value was 40%.
Under `CN1[C@@H](C(C)(C)C)C(O)=C(C(=O)Nc2ccc(C(F)(F)F)cc2-c2ccc(C(F)(F)F)nc2)C(=O)N1Cc1cccc(F)c1F` [Example 238] stands 47%; under `COCCN1CCC[C@H]1COc1ccc(CN2C(=O)C(C(=O)Nc3ccc(C(F)(F)F)cc3-c3cc(C(F)(F)F)ncn3)=C(O)C3(CCC3)N2C)c(F)c1F` [Example 404, 6-[[2,3-Difluoro-4-[[(2S)-1-(2-methoxyethyl)pirrolidin-2-yl]methoxy]phenyl]methyl]-9-hydroxy-5-methyl-7-oxo-N-[4-(trifluoromethyl)-2-[6-(trifluoromethyl)pyrimidin-4-yl]phenyl]-5,6-diazaspiro[3.5]non-8-ene-8-carboxamide], 43%.
Under `C[C@]12CCCN1N(Cc1c(F)cc(C#CC3(O)CCCC3)cc1F)C(=O)C(C(=O)Nc1ccc(C(F)(F)F)cc1-c1ccc(C(F)(F)F)nc1)=C2O` [Example 130] stands 72%.
Regarding `CN1N(Cc2ccc(OCCN3CCOCC3(C)C)c(F)c2F)C(=O)C(C(=O)Nc2ccc(C(F)(F)F)cc2-c2cc(C(F)(F)F)ncn2)=C(O)C12CCC2` [Example 341], the “Rate of uptake inhibition (%) (1 µM)” value was 64%.
Turning to `CN(C[C@H](O)[C@@H](O)[C@H](O)[C@H](O)CO)C(=O)CCOCCOCCOCCOc1ccc(CN2C(=O)C(C(=O)Nc3ccc(C(F)(F)F)cc3-c3cc(C(F)(F)F)ncn3)=C(O)C3(CCCC3)N2C)c(F)c1F` [Example 423], the “Rate of uptake inhibition (%) (1 µM)” value was determined as 5%.
Turning to `CN1N(Cc2cccc(F)c2F)C(=O)C(C(=O)Nc2ccc(Cl)cc2-c2cc(C(F)(F)F)ncn2)=C(O)C12CCCC2` [Example 261], the “Rate of uptake inhibition (%) (1 µM)” value is listed as 77%.
For the molecule `COc1cccc(-c2cc(C(F)(F)F)ccc2NC(=O)C2=C(O)[C@@]3(C)CCCN3N(Cc3ccc(C#CCCCCO)c(F)c3F)C2=O)c1OC` [Example 135], the “Rate of uptake inhibition (%) (1 µM)” value is listed as 90%.
As for `CN1N(Cc2ccc(OCCCC(=O)O)c(F)c2F)C(=O)C(C(=O)Nc2ccc(C(F)(F)F)cc2-c2cc(C(F)(F)F)ncn2)=C(O)C12CCCC2` [Example 332, 4-[2,3-Difluoro-4-[[10-hydroxy-6-methyl-8-oxo-9-[[4-(trifluoromethyl)-2-[6-(trifluoromethyl)pyrimidin-4-yl]phenyl]carbamoyl]-6,7-diazaspiro[4.5]dec-9-en-7-yl]methyl]phenoxy]butanoate], the figure is 3%; as for `CN1N(Cc2ccc(OCCN3CCOCC3)c(F)c2F)C(=O)C(C(=O)Nc2ccc(C(F)(F)F)cc2-c2ccc(C(F)(F)F)nc2)=C(O)C1(C)C` [Example 314, 2-[[2,3-Difluoro-4-(2-morpholin-4-ylethoxy)phenyl]methyl]-5-hydroxy-1,6,6-trimethyl-3-oxo-N-[4-(trifluoromethyl)-2-[6-(trifluoromethyl)pyridin-3-yl]phenyl]pyridazine-4-carboxamide], 72%; as for `CN1N(Cc2ccc(OCCCOCCO)c(F)c2F)C(=O)C(C(=O)Nc2ccc(C(F)(F)F)cc2-c2cc(C(F)(F)F)ncn2)=C(O)C12CCCC2` [Example 395], 39%.
Consider `C[C@]12CCCN1N(Cc1ccccc1)C(=O)C(C(=O)Nc1ccc(C(F)(F)F)cc1-c1cc(C(F)(F)F)ncn1)=C2O` [Example 188], for which the “Rate of uptake inhibition (%) (1 µM)” value is on record as 93%.
As for `C[C@]12CCCN1N(Cc1c(Cl)cc(OCCN3CCOCC3)cc1Cl)C(=O)C(C(=O)Nc1ccc(C(F)(F)F)nc1-c1ccc(C(F)(F)F)nc1)=C2O.Cl` [Example 148, (4aR)-1-[[2,6-Dichloro-4-(2-morpholin-4-ylethoxy)phenyl]methyl]-4-hydroxy-4a-methyl-2-oxo-N-[6-(trifluoromethyl)-2-[6-(trifluoromethyl)pyridin-3-yl]pyridin-3-yl]-6,7-dihydro-5H-pyrrolo[1,2-b]pyridazine-3-carboxamide hydrochloride], the figure is 75%.
